The record followed here is patent publication US20210108247A1, “CHEMOENZYMATIC SYNTHESIS OF TREHALOSE ANALOGUES” (Central Michigan University, priority 2014, published 2021).

Common to all, as to assay type: cell-based
For experiment [1], the system named is M. smegmatis wild type. The experiment is described as follows: Uptake of fluoro trehalose, GC-MS of cytosolic extracts. The conditions noted are these: 100 μM, 1 h, 37° C. The method, then:
Cultures of M. smegmatis wild type, ΔsugC mutant, or ΔsugC::sugC complement were generated by inoculating a single colony from a freshly streaked agar plate (with appropriate antibiotic, if needed) into 3 mL Middlebrook 7H9 liquid medium supplemented with ADC (albumin, dextrose, and catalase), 0.5% glycerol, and 0.05% Tween-80 in a culture tube. Starter cultures were incubated at 37° C. with shaking until reaching log phase. Cells were then cultured at 37° C. in the presence or absence of 2-, 3-, 4-, or 6-fluoro trehalose (100 μM) in 7H9 liquid medium for 1 h, then centrifuged and washed (5000 rpm for 5 min) three times in ultrapure water. The washed cells were resuspended in ultrapure water and boiled for 4 h, then centrifuged. The supernatant was collected and dried on a speedvac to yield water-soluble cytosolic metabolites (e.g., trehalose and fluoro trehaloses, if present), which were subsequently trimethylsilyl (TMS)-derivatized using N-Methyl-N-(trimethylsilyl) trifluoroacetamide (MSTFA) in pyridine and analyzed by gas chromatography-mass spectrometry (GC-MS).

Experiment [2] deals with M. smegmatis ΔsugC::sugC complement. The experiment is described as follows: One-pot metabolic labeling and fluorescence imaging (CuAAC with alkyne fluorophore). As to conditions: 25 μM, 4 h. As for the experimental part: (§1) One-Pot Metabolic Labeling and Imaging of M. smegmatis: Cultures of M. smegmatis wild type, ΔsugC mutant, or ΔsugC::sugC complement were generated by inoculating a single colony from a freshly streaked agar plate (with appropriate antibiotic, if needed) into 3 mL Middlebrook 7H9 liquid medium supplemented with ADC (albumin, dextrose, and catalase), 0.5% glycerol, and 0.05% Tween-80 in a culture tube. Starter cultures were incubated at 37° C. with shaking until reaching log phase. Meanwhile, using the procedure described above, a 50 μL TreT reaction employing 6-GlcAz (10 mM) as the substrate was carried out to synthesize 6-TreAz (+TreT sample). A control reaction lacking TreT was run in parallel (−TreT control). After incubation at 70° C. for 1 h, the reactions were stopped by placing on ice. Given the observed quantitative conversion for this reaction (FIG. 1B, Entry 16), a 6-TreAz concentration of 10 mM was assumed in the +TreT sample. For the −TreT control, a 6-GcAz concentration of 10 mM was assumed. The aqueous reaction mixtures were directly diluted into M. smegmatis wild type, ΔsugC mutant, or ΔsugC::sugC complement growing in 7H9 liquid medium to a final azido sugar concentration of 25 μM and a culture density of OD600=0.15. […] Fluorescence imaging was performed using a GFP LED light cube (maximum excitation/emission=470/510 nm). […]

Experiment [3] relates to M. smegmatis ΔsugC mutant. Described as above. As to conditions: ΔsugC mutant missing the trehalose transporter; 25 μM, 4 h. As for the experimental part: as §1, with “After incubation at 70° C. for 1 h, the reactions were stopped by placing on ice.” left out, “sample.” for “sample. For the −TreT control, a 6-GcAz concentration of 10 mM was assumed. The aqueous reaction mixtures were directly diluted into M. smegmatis wild type, ΔsugC mutant, or ΔsugC::sugC complement growing in 7H9 liquid medium to a final azido sugar concentration of 25 μM and a culture density of OD600=0.15.”
The same experiments were performed in M. smegmatis ΔsugC, a mutant missing the trehalose transporter required for 6-TreAz uptake and labeling, as well as its complement, M. smegmatis ΔsugC::sugC. Fluorescence was abolished in the ΔsugC mutant and restored in the complement, confirming that 6-TreAz labeling proceeded via the trehalose transporter pathway.

In experiment [4] the test system is M. smegmatis wild type. The description is as above. As to conditions: +TreT reaction mixture, 25 μM azido sugar, 4 h, 37° C.

Turning to `OC[C@H]1O[C@H](O[C@H]2O[C@H](CO)[C@@H](O)[C@H](O)[C@H]2F)[C@H](O)[C@@H](O)[C@@H]1O` [2-fluoro trehalose, 2-Deoxy-2-fluoro-α,α-D-trehalose], the “fluoro trehalose derivative in cytosolic extracts (uptake)” value (from here on “fluoro trehalose derivative”) with M. smegmatis wild type [1] was “observed in cytosolic extracts”.

With `OC[C@H]1O[C@H](O[C@H]2O[C@H](CO)[C@@H](O)[C@H](F)[C@H]2O)[C@H](O)[C@@H](O)[C@@H]1O` [3-fluoro trehalose, 3-Deoxy-3-fluoro-α,α-D-trehalose], the “fluoro trehalose derivative” value with M. smegmatis wild type [1] is given as “observed in cytosolic extracts”. For the compound `[N-]=[N+]=NC[C@H]1O[C@H](O[C@H]2O[C@H](CO)[C@@H](O)[C@H](O)[C@H]2O)[C@H](O)[C@@H](O)[C@@H]1O` [6-TreAz, 6-Azido-6-Deoxy-α,α-D-trehalose], the “fluorescence labeling of bacteria (fluorescence microscopy)” value is listed as “restored” in experiment [2], “abolished” in experiment [3] and “strong labeling” with M. smegmatis wild type [4]. With `OC[C@H]1O[C@H](O[C@H]2O[C@H](CF)[C@@H](O)[C@H](O)[C@H]2O)[C@H](O)[C@@H](O)[C@@H]1O` [6-fluoro trehalose], in the experiment on M. smegmatis wild type [1], the “fluoro trehalose derivative” value is reported as “observed in cytosolic extracts”.
